From patent publication EP0527427A2, “Catalysts and casting article, method, and composition” (MINNESOTA MINING AND MANUFACTURING COMPANY, priority 1991, dated 1993)

Experiments:
[1] = pKa by potentiometric backtitration (compounds of Formula II, Table IX); type: physicochemical; conditions: half-neutralization point taken as pKa; backtitration with 0.01N sodium hydroxide
Description: Several of the compounds of the invention were characterized by their titration curves (i.e., their pKa values) as follows: To a 0.1 g sample of a compound of the invention was added with stirring 60 mL of distilled water, then 10 mL of 0.1N hydrochloric acid was added. The solution was stirred for 10 minutes. The pH of the solution was then measured potentiometrically using a Metrohm Model 670 TITROPROCESSOR™ potentiometer (Brinkman Instruments Inc., Westbury, NY) while backtitrating with 0.01N sodium hydroxide solution. The endpoints and half-neutralization points were determined by the instrument, and for the purposes of this determination the half-neutralization point is taken as the pKa.

[2] = Farm.Zh. (Kiev) 1990, 1, 38; cited from earlier work
[3] = Khim.-Farm.Zh. 1983, 17, 916; cited from earlier work
[4] = pKa by potentiometric backtitration (catalysts, Table I); type: physicochemical; conditions: half-neutralization point taken as pKa; backtitration with 0.1N sodium hydroxide
Description: The solution was stirred for 10 minutes, then backtitrated with 0.1N sodium hydroxide solution. The pH during backtitration was measured potentiometrically using a Metrohm Model 670 TITROPROCESSOR™ potentiometer (Brinkman Instruments Inc., Westbury, NY). The endpoint and half-neutralization point were determined by the instrument, and for the purposes of this determination the half-neutralization point is taken as the pKa.

Measured pKa first [1]	Measured pKa second [1]	Compound	other results
9.15	7.03	CN1CCCCC1COC(=O)CN1CCCC1 (stereo not shown) [2-(1-Methylpiperidyl)methyl 1-Pyrrolidineacetate]	
9.26	7.12	O=C(CN1CCCC1)OCCN1CCCC1 [2-(1-Pyrrolidinyl)ethyl 1-Pyrrolidineacetate]	
8.97	6.72	O=C(CN1CCCC1)OCCN1CCCCC1 [2-(1-piperidino)ethyl 1-pyrrolidineacetate]	
		CCN(CC)CCOC(=O)CN(C)C [2-(Diethylamino)ethyl dimethylaminoacetate]	inotropic activity [2]: significant inotropic activity; analgesic activity [3]: analgesic activity
		CN(C)CCOC(=O)CN(C)C [(CH3)2NCH2C(O)OCH2CH2N(CH3)2, 2-(N,N-Dimethylamino)ethyl N,N-Dimethylaminoacetate]	Measured pKa first [4]: 8.53; Measured pKa second [4]: 6.49
